{"source": "patent US7589177B2", "about": "“Nucleic acid molecules encoding cyclotide polypeptides and methods of use” (E.I. du Pont de Nemours & Company, priority 2004, dated 2009)", "key": {"Panagrellus redivivus": {"tested_on": "Panagrellus redivivus", "assay": "Bioactivity of cyclotide 2 against the nematode Panagrellus redivivus (dose-response, % mortality)", "assay_type": "in vivo", "description": "Panagrellus was grown in basal medium and diluted in sterile water to create a stock solution concentration of 200 nematodes/50 μL (the basal media inoculum). Using a multi-channel pipette, 50 μL of the nematode stock solution was added to each well of plates containing the fractionated crude extract. Tests were performed on duplicate samples. Once the activity was established, the HPLC peaks corresponding to the active wells were purified and dose-response assays were done.\nSamples for a dose-response assay were resuspended in 40 μL and 4 wells of 8 μL, 6 μL, 4 μL and 2 μL were prepared in replicates of two. The volume was adjusted with the basal media inoculum to get a final volume of 50 μL and 200 nematodes per well. […] The percent mortality was calculated as ratio of dead nematodes against the total (living and dead) number present in the test wells."}, "[1]": {"tested_on": "Colletotrichum graminaria", "assay": "Dose-response fungal growth inhibition assay", "assay_type": "cell-based", "conditions": "2500 spores/mL in 1/2 strength PDB, 28° C., scored after 24 and 48 hours", "description": "(§1) The anti-fungal activity of cyclotide 2 was tested against the crop pathogens Fusarium verticilloides and Colletotrichum graminaria, and the filamentous fungus Neurospora crassa. To conduct the assay, 100 μL of ½ strength potato dextrose broth (PDB) containing a spore suspension of 2500 spores/mL was added to each well in a 96 well microtiter plate containing dried HPLC fractions. The plates were mixed three times in approximately five minute intervals before incubation at 28° C., and were scored after 24 hours and 48 hours for inhibition of fungal growth. Inhibition of fungal growth was defined as little to no spore germination with no detectable hyphae growth.\n(§2) The dose-response fungal assays were performed by resuspending the lyophilized cyclotide protein sample in 200 μL of a solution which consisted of fungal spores suspended in ½ strength potato dextrose broth (PDB) at a concentration of 2500 spores/mL. The spores were either from Fusarium verticilloides, Colletotrichum graminaria or Neurospora crassa. This resuspended sample represented a starting stock solution. A 0.5× dilution series was then prepared by removing 100 μL of the starting stock solution and adding it to a well in a 96 well tray containing 100 μL of spore suspension (2500 spores/mL), mixing thoroughly and then transferring 100 μL of the newly diluted cyclotide/spore suspension to a fresh well containing 100 μL of spore suspension etc., until all 12 columns of the row of sample in the 96 well tray were prepared. The final volume of the assay was then 100 μL. The plates were mixed three times in approximately five minute intervals before they were incubated at 28° C. and then were scored after 24 and 48 hours for inhibition of fungal growth. Inhibition of fungal growth was defined as little to no spore germination with no detectable hyphae growth."}, "Fusarium verticilloides": {"tested_on": "Fusarium verticilloides", "assay": "Dose-response fungal growth inhibition assay", "assay_type": "cell-based", "conditions": "2500 spores/mL in 1/2 strength PDB, 28° C., scored after 24 and 48 hours", "description": "as §1, §2"}, "Neurospora crassa": {"tested_on": "Neurospora crassa", "assay": "Dose-response fungal growth inhibition assay", "assay_type": "cell-based", "conditions": "2500 spores/mL in 1/2 strength PDB, 28° C., scored after 24 and 48 hours", "description": "as §1, §2"}, "Sclerotinia": {"tested_on": "Sclerotinia", "assay": "Sclerotinia hyphal growth inhibition dose-response assay", "assay_type": "cell-based, Sclerotinia sclerotiorum", "set-up": "key: 0: no inhibition of fungal growth; 1: slight inhibition; 2: moderate inhibition; 3: extensive inhibition; 4: total inhibition", "conditions": "48 hours", "description": "To test the activity of cyclotide 2 against Sclerotinia, a Sclerotinia test inoculum was started by inoculating ½ strength PDB liquid with a sterile loop of hyphae from a Sclerotinia culture propagated on a ⅛ strength potato dextrose agar (PDA) plate. This liquid inoculum was held at room temperature (22° C.), without shaking, in the dark for 4 days, to allow sufficient growth of hyphae. The resulting suspension was macerated using a sterile polytron tissue grinder. The sample was then diluted with ½ strength PDB to the point of invisibility to the naked eye (observation under microscopy at 40× indicated the presence of 12-15 hyphal fragments per 50 μL aliquot of inoculum). Then, 50 μL of the inoculum was added to each well of a 96 shallow well bioassay plate.\nThe cyclotide sample, following fractionation and lyophilization, was resuspended in 100 μL ½ strength PDB, placed on ice and gently shaken. Then, 50 μL of resuspended sample was added to each corresponding well of the bioassay plate to give a final test volume of 100 μL and […] per well. In the inoculum control wells, 50 μL of inoculum and 50 μL of ½ strength PDB were used, while the media control wells contained 100 μL of ½ strength PDB. The wells were covered with Breathe-Easy membranes (Web Scientific Ltd., Cheshire, U.K.) and placed in the dark on the benchtop.\nFor the dose-response assay, lyophilized cyclotide 2 was resuspended in 40 μL of ½ strength PDB solution. Then, 20 μL of the resuspended sample was pipetted into 4 different wells containing either 8 μL, 6 μL, 4 μL or 2 μL of suspension. The final volume in each well was adjusted to 100 μL with the Sclerotinia test inoculum. The plates were covered with Breathe-Easy membranes (Web Scientific Ltd., Cheshire, U.K.) and placed in the dark on the benchtop."}, "Caenorhabditis elegans [2]": {"tested_on": "Caenorhabditis elegans", "assay": "Nematocidal activity of cyclotide 2 against C. elegans (dose-response, development score)", "assay_type": "in vivo", "set-up": "key to Replicate 1 Score (nematode development) / Replicate 2 Score (nematode development): 1: no development; 2: little development; 5: medium development; 10: full development", "conditions": "for Replicate 1 Score (nematode development) / Replicate 2 Score (nematode development): 50 L1-stage nematodes per well", "description": "Samples of cyclotide 2 to be used in a dose-response assay were resuspended in 180 μl distilled H2O to create a stock solution of 161.3 μM. The dose-response assay was carried out in 96 well microtiter plates with each dose prepared in replicates of two. Each assay well contained 50 L1-stage nematodes which had been grown in S-medium (100 mM NaCl, 10 mM K citrate, pH 6.0, 50 mM KHPO4, pH 6.0, 3 mM CaCl2, 3 mM MgCl2, […], […], 10 mM MnCl2, 10 mM ZnSO4, 1 mM CuSO4) and had been allowed to feed on overnight cultured E. coli strain OP50, 30 μg/mL tetracycline and 30 μg/mL chloramphenicol. The total assay volume was 100 μL. The assay was scored at days 3 and 4 (Table 3)."}, "Caenorhabditis elegans [3]": {"tested_on": "Caenorhabditis elegans", "assay": "Nematocidal activity of cyclotide 2 against C. elegans (dose-response, development score)", "assay_type": "in vivo", "conditions": "fractionated crude extract of Viola spp."}}, "data": [{"substance": "cyclotide 2: bioactive cyclotide purified from Viola spp. extract; SEQ ID NO:6 GIPCGESCVWIPCISAAIGCSCKSKVCYRN (cyclo(GIPCGESCVWIPCISAAIGCSCKSKVCYRN); not fully specified (bridges); also: three disulfide bonds (cystine knot), pairings not given here; listed as Viola sp.)", "values": [{"measurement": "Scored at 18 hrs (% mortality)", "setting": "Panagrellus redivivus; 10.07 μM", "value": 60, "unit": "%"}, {"measurement": "Scored at 24 hrs (% mortality)", "setting": "Panagrellus redivivus; 10.07 μM", "value": 74, "unit": "%"}, {"measurement": "Scored at 18 hrs (% mortality)", "setting": "Panagrellus redivivus; 20.13 μM", "value": ">60", "unit": "%"}, {"measurement": "Scored at 24 hrs (% mortality)", "setting": "Panagrellus redivivus; 20.13 μM", "value": 78, "unit": "%"}, {"measurement": "Scored at 18 hrs (% mortality)", "setting": "Panagrellus redivivus; 30.20 μM", "value": 70, "unit": "%"}, {"measurement": "Scored at 24 hrs (% mortality)", "setting": "Panagrellus redivivus; 30.20 μM", "value": 80, "unit": "%"}, {"measurement": "Scored at 18 hrs (% mortality)", "setting": "Panagrellus redivivus; 40.27 μM", "value": 85, "unit": "%"}, {"measurement": "Scored at 24 hrs (% mortality)", "setting": "Panagrellus redivivus; 40.27 μM", "value": 90, "unit": "%"}, {"measurement": "Scored at 18 hrs (% mortality)", "setting": "Panagrellus redivivus; 50.34 μM", "value": 85, "unit": "%"}, {"measurement": "Scored at 24 hrs (% mortality)", "setting": "Panagrellus redivivus; 50.34 μM", "value": 95, "unit": "%"}, {"measurement": "Scored at 18 hrs (% mortality)", "setting": "Panagrellus redivivus; 60.40 μM", "value": 90, "unit": "%"}, {"measurement": "Scored at 24 hrs (% mortality)", "setting": "Panagrellus redivivus; 60.40 μM", "value": "~100", "unit": "%"}, {"measurement": "Activity of HPLC peak against Panagrellus redivivus", "setting": "Panagrellus redivivus; fractionated crude extract of Viola spp.", "value": "specifically active"}, {"measurement": "LD90 concentration (concentration at which 90% of the nematodes are killed)", "setting": "Panagrellus redivivus; within 24 hrs observation time", "value": 40.27, "unit": "µM"}, {"measurement": "Cyclotide concentration at which total inhibition of fungal growth is observed", "setting": "[1]", "value": 2.5, "unit": "µM"}, {"measurement": "Cyclotide concentration at which total inhibition of fungal growth is observed", "setting": "Fusarium verticilloides", "value": 10, "unit": "µM"}, {"measurement": "Cyclotide concentration at which total inhibition of fungal growth is observed", "setting": "Neurospora crassa", "value": 1.25, "unit": "µM"}, {"measurement": "Score (inhibition of hyphal growth)", "setting": "Sclerotinia; 1.67 μM", "value": 1}, {"measurement": "Score (inhibition of hyphal growth)", "setting": "Sclerotinia; 3.33 μM", "value": 2}, {"measurement": "Score (inhibition of hyphal growth)", "setting": "Sclerotinia; 5.0 μM", "value": 4}, {"measurement": "Score (inhibition of hyphal growth)", "setting": "Sclerotinia; 6.67 μM", "value": 3}, {"measurement": "Replicate 1 Score (nematode development)", "setting": "Caenorhabditis elegans [2]; 0.81 μM", "value": 10}, {"measurement": "Replicate 2 Score (nematode development)", "setting": "Caenorhabditis elegans [2]; 0.81 μM", "value": 10}, {"measurement": "Replicate 1 Score (nematode development)", "setting": "Caenorhabditis elegans [2]; 1.62 μM", "value": 10}, {"measurement": "Replicate 2 Score (nematode development)", "setting": "Caenorhabditis elegans [2]; 1.62 μM", "value": 10}, {"measurement": "Replicate 1 Score (nematode development)", "setting": "Caenorhabditis elegans [2]; 3.24 μM", "value": 5}, {"measurement": "Replicate 2 Score (nematode development)", "setting": "Caenorhabditis elegans [2]; 3.24 μM", "value": 5}, {"measurement": "Replicate 1 Score (nematode development)", "setting": "Caenorhabditis elegans [2]; 6.48 μM", "value": 2}, {"measurement": "Replicate 2 Score (nematode development)", "setting": "Caenorhabditis elegans [2]; 6.48 μM", "value": 2}, {"measurement": "Replicate 1 Score (nematode development)", "setting": "Caenorhabditis elegans [2]; 16.2 μM", "value": 1}, {"measurement": "Replicate 2 Score (nematode development)", "setting": "Caenorhabditis elegans [2]; 16.2 μM", "value": 1}, {"measurement": "LD90", "setting": "Caenorhabditis elegans [2]; recorded after day three", "value": 6.48, "unit": "µM"}, {"measurement": "Activity of HPLC peak against Caenorhabditis elegans", "setting": "Caenorhabditis elegans [3]", "value": "specifically active"}]}]}
